Data as given in US20230277564A1, “CANNABINOIDAL COMPOSITIONS FOR THE TREATMENT OF DISEASE” (The State of Israel, Ministry of Agriculture & Rural …, priority 2020, published 2023).

Legend:
Format in all cases: cell-based
[1] = test system: IL-6 secreted from A549 cells; assay: IL-6 secretion from TNFα-treated A549 cells (ELISA); conditions: for IL-6 secretion: at the concentration and ratio found in 10 μg/ml FCBD:std
Procedure: (§1) Cell cultures—The lung cancer cell line A549 (ATCC® CCL-185™) was cultured in DMEM (01-055-1A, Biological Industries, Israel) growth media supplemented with 10% FBS (04-127-1A, Biological Industries, Israel), 1% […], 1% pen-strep and plasmocin. Macrophage cell line KG1 (ATCC® CCL-246™) was cultured in IMDM (01-058-1A; Biological Industries, Israel) containing 20% FBS and 1% pen-strep and plasmocin. IMDM media supplemented with 10 ng/mL PMA, 5% FBS, 1% pen-strep and plasmocin was used as stimulating environment for the differentiation of KG1 cells. Differentiated cells with typical morphology were attached to the plate surface within 1-2 days of initiation^39.
(§2) Determination of IL levels and cell viability—IL-6 and IL-8 levels were determined as described previously^40 with the following modifications: A549 cells were plated at 5×10^4 cells per well in DMEM complete media (400 μL) in a 24-well cell culture plate. Cells were allowed to attach and incubated with complete DMEM at 37° C. in a humidified atmosphere containing 5% CO2-95% air. Following overnight incubation, cells were treated with 300 ng/mL TNFα with or without plant extract or fraction/compounds. IL-6 and IL-8 secretion levels were analyzed after 4 hours of incubation. Supernatant samples were taken and tested using IL-6 and IL-8 ELISA kits (DY206 and DY208 respectively, R&D Systems, Minneapolis, Minn., USA). Dexamethasone was used as a positive control. For cell viability, an Alamar Blue (resazurin) assay was performed on each well as described previously^40. For dose response assays, data points were connected by non-linear regression lines of the sigmoidal dose-response relation. GraphPad Prism (GraphPad Software Inc., San Diego, USA) was employed to produce dose-response curves and IC50 doses were calculated using nonlinear regression analysis.

[2] = test system: IL-8 secreted from A549 cells; assay: IL-8 secretion from TNFα-treated A549 cells (ELISA); conditions: for IL-8 secretion: at the concentration and ratio found in 10 μg/ml FCBD:std
Procedure: as §1, §2

CD36 = assay: qPCR of CD36 mRNA in PMA-treated KG1 cells; conditions: FCBD and FCBD:std 7 μg/mL, Palmitic acid 150 μM, versus vehicle control
Procedure: as §1
(§3) Quantitative real-time (qRT) PCR—qRT PCR was effected as described^38. Briefly, cells were seeded in a 6-well plate at a concentration of 1.5×10^6 cells in 3 mL per well. Following 24 hours incubation, cells were treated with extract/fraction/compounds for 6 hours. Cells were harvested and RNA was extracted using TRI reagent (T9424, Sigma Aldrich, USA). RNA was reverse-transcribed in a total volume of 20 μL (PB30.11-10; qPCRBIO), according to manufacturer's protocol. PCR was performed in triplicate using qPCR SyGreen Blue Mix (PB20.16-20, qPCRBIO) and a StepOnePlus system (Applied Biosystems). […]

IL-8 = assay: qPCR of IL-8 mRNA in PMA-treated KG1 cells (differentiated macrophages); conditions: 6 hours, FCBD and FCBD:std 7 μg/mL, Dex 8 μg/mL, relative to control
Procedure: as §1, §3

[3] = test system: IL-8 secreted from KG1 cells; assay: IL-8 secretion from KG1 cells treated with TNFα (ELISA); conditions: 300 ng/mL TNFα, 4 hours, FCBD or FCBD:std 10 μg/mL or indicated concentrations, Dex 4 μg/mL
Procedure: as §1
Determination of IL levels and cell viability—IL-6 and IL-8 levels were determined as described previously^40 with the following modifications: A549 cells were plated at 5×10^4 cells per well in DMEM complete media (400 μL) in a 24-well cell culture plate. Cells were allowed to attach and incubated with complete DMEM at 37° C. in a humidified atmosphere containing 5% CO2-95% air. […] IL-6 and IL-8 secretion levels were analyzed after 4 hours of incubation. […] GraphPad Prism (GraphPad Software Inc., San Diego, USA) was employed to produce dose-response curves and IC50 doses were calculated using nonlinear regression analysis.

IL-6 = assay: qPCR of IL-6 mRNA in PMA-treated KG1 cells (differentiated macrophages); conditions: 6 hours, FCBD and FCBD:std 7 μg/mL, Dex 8 μg/mL, relative to control
Procedure: as §1, §3

CCL2 = assay: qPCR of CCL2 mRNA in PMA-treated KG1 cells (differentiated macrophages); conditions: 6 hours, FCBD and FCBD:std 7 μg/mL, Dex 8 μg/mL, relative to control
Procedure: as §1, §3

[4] = higher or lower concentrations of CBD than 3.0 μg/mL

Structure (SMILES): Cc1c(C(=O)NN2CCCCC2)nn(-c2ccc(Cl)cc2Cl)c1-c1ccc(I)cc1 [CB1 IA]
- IL-6 levels, inverse agonist alone ([1]; treatment with IA only): reduction
- IL-8 levels, inverse agonist alone ([2]; treatment with IA only): reduction

Structure (SMILES): C=C(C)[C@@H]1CCC(C)=C[C@H]1c1c(O)cc(CCCCC)cc1O [CBD, cannabidiol]
- IL-6 levels, anti-inflammatory activity ([1]; CBD alone at 3.0 μg/mL): showed anti-inflammatory activity
- IL-6 secretion [1]: did not lead to such a reduction
- activity in reducing IL-6 levels [1, 4]: lower and/or non-significant activity
- IL-8 levels, anti-inflammatory activity ([2]; CBD alone at 3.0 μg/mL): showed anti-inflammatory activity
- IL-8 secretion [2]: did not lead to such a reduction
- activity in reducing IL-8 levels [2, 4]: lower and/or non-significant activity

Structure (SMILES): CCCCCc1cc(O)c(C/C=C(\C)CCC=C(C)C)c(O)c1 [CBG, cannabigerol]
- IL-6 secretion [1]: did not lead to such a reduction
- IL-8 secretion [2]: did not lead to such a reduction

Structure (SMILES): CCCCCCCCCCCCCCCC(=O)O [PA, Palmitic acid]
- mRNA expression of CD36 (CD36): reduced

Structure (SMILES): CCCc1cc(O)c2c(c1)OC(C)(C)[C@@H]1CCC(C)=C[C@@H]21 [THCV, tetrahydrocannabivarin]
- IL-6 secretion [1]: did not lead to such a reduction
- IL-8 secretion [2]: did not lead to such a reduction

Structure (SMILES): C[C@@H]1C[C@H]2[C@@H]3CCC4=CC(=O)C=C[C@]4(C)[C@@]3(F)[C@@H](O)C[C@]2(C)[C@@]1(O)C(=O)CO [dexamethasone, Dexamethasone]
- increase of IL-8 mRNA expression level (IL-8): no effect
- IL-8 secretion from KG1 cells [3]: no effect
- increase of IL-6 mRNA expression level (IL-6): no effect
- increase of CCL2 mRNA expression level (CCL2): no effect
